Measured values: patent publication US9981928B2, “Aryl sulfide derivatives and aryl sulfoxide derivatives as acaricides and insecticides” (BAYER CROPSCIENCE AKTIENGESELLSCHAFT, priority 2013, dated 2018)
Read-outs that look alike come from different tables or passages of the source.

What was measured:
[1] = log P determination by HPLC on reversed-phase columns (C 18), analogously to OECD Guideline 117; format: physicochemical; details: for logP (HCOOH): LC-MS in the acidic range, pH 2.7, 0.1% aqueous formic acid / acetonitrile; for logP (HCOOH) / logP (neutral): HPLC reversed-phase C 18; for logP (neutral): LC-MS in the neutral range, pH 7.8, 0.001 molar aqueous ammonium hydrogencarbonate / acetonitrile
Description: The log P values were determined analogously to OECD Guideline 117 (EC Directive 92/69/EEC) by HPLC (high-performance liquid chromatography) using reversed-phase columns (C 18), by the following methods:
[a] The LC-MS determination in the acidic range was effected at pH 2.7 with 0.1% aqueous formic acid and acetonitrile (contains 0.1% formic acid) as eluents; linear gradient from 10% acetonitrile to 95% acetonitrile. log P^[a] is also referred to as log P(HCOOH). [b] LC-MS determination in the neutral range was effected at pH 7.8 with 0.001 molar aqueous ammonium hydrogencarbonate solution and acetonitrile as eluents; linear gradient from 10% acetonitrile to 95% acetonitrile. log P^[…] is also referred to as log P(neutral).

[2] = tested on: greenhouse red spider mite (Tetranychus urticae); assay: Tetranychus urticae spray test, OP-resistant (TETRUR), bean leaf disks; format: in vivo; details: for pest or weed control at 500 g/ha: Tetranychus urticae, foliar, 144 h, read-out: efficacy in %
Description: Tetranychus urticae—Spray Test, OP-Resistant (TETRUR)
Solvent: 78.0 parts by weight of acetone
• 1.5 parts by weight of dimethylformamide Emulsifier: alkylaryl polyglycol ether
To produce a suitable preparation of active compound, 1 part by weight of active compound is dissolved using the stated parts by weight of solvent and made up with water containing an emulsifier concentration of 1000 ppm until the desired concentration is attained. To produce further test concentrations, the preparation is diluted with emulsifier-containing water.
disks of bean leaves (Phaseolus vulgaris) infested with all stages of the greenhouse red spider mite (Tetranychus urticae) are sprayed with an active compound preparation of the desired concentration.
After 6 days, the efficacy in % is determined. 100% means that all the spider mites have been killed; 0% means that none of the spider mites have been killed.

[3] = bean leaf disks, application rate 500 g/ha, after 6 days
[4] = reversed-phase C18 HPLC column, acidic range, pH 2.7, 0.1% aqueous formic acid and acetonitrile, read-out: log P[a] / log P(HCOOH)
[5] = reversed-phase C18 HPLC column, neutral range, pH 7.8, 0.001 molar aqueous ammonium hydrogencarbonate and acetonitrile, read-out: log P[b] / log P(neutral)

With `Cc1cc(F)c(N2C(=O)CSC2=NCC(C)(C)C)cc1[S+]([O-])CC(F)(F)F` (racemic) [Example 114] as the molecule, how does the “logP (HCOOH)” value [1] read?
Its value is 3.66.

What about the “logP (neutral)” value [1] of the same molecule?
The value was 3.63.

What about the efficacy in % [2, 3] of the same molecule?
Its efficacy in % is 90%.

For `C=CCn1c(=O)n(-c2cc([S+]([O-])CC(F)(F)F)c(C)cc2F)c(=O)n1CC=C` (racemic) [Example 120], which “logP (HCOOH)” value [1] is on record?
The value was 2.46.

And the efficacy in % [2, 3]?
Its efficacy in % is 90%.

With `C#CCn1c(=O)n(-c2cc([S+]([O-])CC(F)(F)F)c(C)cc2F)c(=O)n1C` (racemic) [Example 123] as the molecule, how does the “logP (HCOOH)” value [1] read?
Its value is 1.96.

And the efficacy in % [2, 3]?
The efficacy in % was 100%.

Which “logP (HCOOH)” value [1] does the source give for `C=CCn1c(=O)n(-c2cc([S+]([O-])CC(F)(F)F)c(C)cc2F)c(=O)n1C` (racemic) [Example 124] here?
Its value is 2.00.

And the efficacy in % [2, 3]?
Its efficacy in % is 100%.

Which results are given for `Cc1cc(F)c(N2CCN(C)C2=O)cc1[S+]([O-])CC(F)(F)F` (racemic) [Example 199]?
logP (HCOOH) [1]: 1.76; logP (neutral) [1]: 1.74; efficacy in % [2, 3]: 100%

For `C=CCN1CC(=O)N(c2cc([S+]([O-])CC(F)(F)F)c(C)cc2F)C1=O` (racemic) [Example 201], which “logP (HCOOH)” value [1] is on record?
The value was 2.02.

What about the “logP (neutral)” value [1] of the same molecule?
Its value is 1.99.

And the efficacy in % [2, 3]?
The efficacy in % was 100%.

For `Cc1cc(F)c(-n2c(=O)n(C3CC3)c(=O)n2C)cc1[S+]([O-])CC(F)(F)F` (single isomer, unassigned) [Example 151], which “logP (HCOOH)” value [1] is on record?
The value was 1.98.

What about the “logP (neutral)” value [1] of the same molecule?
Its value is 1.88.

And the efficacy in % [2, 3]?
The efficacy in % was 90%.

With `Cc1cc(C)c(N2CCNC2=O)cc1SCC(F)(F)F` [Example 1, 1-{2,4-Dimethyl-5-[(2,2,2-trifluoroethyl)sulfanyl]phenyl}imidazolidin-2-one] as the molecule, how does the chromatographic logP [1, 4] read?
The chromatographic logP was 2.43.

What about the chromatographic logP [1, 5] of the same molecule?
The chromatographic logP was 2.39.

What about the pest or weed control at 500 g/ha [2] of the same molecule?
The pest or weed control at 500 g/ha was 90%.

For `Cc1cc(F)c(N2CCCC2=NCC(F)(F)F)cc1[S+]([O-])CC(F)(F)F` (centres unmarked) [Example 3, 2,2,2-Trifluoro-N-(1-{2-fluoro-4-methyl-5-[(2,2,2-trifluoroethyl)sulfinyl]phenyl}pyrrolidin-2-ylidene)ethanamine], which chromatographic logP [1, 4] is on record?
Its chromatographic logP is 1.02.

And the chromatographic logP [1, 5]?
Its chromatographic logP is 2.88.

What about the pest or weed control at 500 g/ha [2, 3] of the same molecule?
Its pest or weed control at 500 g/ha is 90%.

With `Cc1cc(F)c(N2CCCC2=NCC(F)(F)F)cc1SCC(F)(F)F` [Example 6, 2,2,2-Trifluoro-N-(1-[2-fluoro-4-methyl-5-[(2,2,2-trifluoroethyl)sulfanyl]phenyl]pyrrolidin-2-ylidene)ethanamine] as the molecule, how does the chromatographic logP [1, 4] read?
The chromatographic logP was 1.68.

What about the chromatographic logP [1, 5] of the same molecule?
Its chromatographic logP is 4.24.

What about the pest or weed control at 500 g/ha [2, 3] of the same molecule?
The pest or weed control at 500 g/ha was 90%.

With `OB(O)c1cc(SCC(F)(F)F)c(Cl)cc1Cl` [VIIIa-6, {2,4-Dichloro-5-[(2,2,2-trifluoroethyl)sulfanyl]phenyl}boronic acid] as the molecule, how does the chromatographic logP [1, 4] read?
The chromatographic logP was 2.61.

What about the chromatographic logP [1, 5] of the same molecule?
Its chromatographic logP is 2.52.

With `COc1ccc(B(O)O)cc1SCC(F)(F)F` [VIIIa-8, {4-Methoxy-3-[(2,2,2-trifluoroethyl)sulfanyl]phenyl}boronic acid] as the molecule, how does the chromatographic logP [1, 4] read?
Its chromatographic logP is 1.94.

What about the chromatographic logP [1, 5] of the same molecule?
Its chromatographic logP is 1.93.

Which chromatographic logP [1, 4] does the source give for `Cc1cc(C)c(B(O)O)cc1SCC(F)(F)F` [VIIIa-11, {2,4-Dimethyl-5-[(2,2,2-trifluoroethyl)sulfanyl]phenyl}boronic acid] here?
Its chromatographic logP is 2.58.

What about the chromatographic logP [1, 5] of the same molecule?
Its chromatographic logP is 2.57.

For `[O-][S+](CC(F)(F)F)c1cc(B(O)O)ccc1Cl` (centres unmarked) [VIIIb-3, {4-Chloro-3-[(2,2,2-trifluoroethyl)sulfinyl]phenyl}boronic acid], which chromatographic logP [1, 4] is on record?
The chromatographic logP was 1.74.

What about the chromatographic logP [1, 5] of the same molecule?
Its chromatographic logP is 1.68.

Which results are given for `[O-][S+](CC(F)(F)F)c1cc(B(O)O)c(Cl)cc1Cl` (centres unmarked) [VIIIb-6, {2,4-Dichloro-5-[(2,2,2-trifluoroethyl)sulfinyl]phenyl}boronic acid]?
chromatographic logP [1, 4]: 1.86; chromatographic logP [1, 5]: 1.51

With `COc1ccc(B(O)O)cc1[S+]([O-])CC(F)(F)F` (centres unmarked) [VIIIb-8] as the molecule, how does the chromatographic logP [1, 4] read?
Its chromatographic logP is 1.36.

What about the chromatographic logP [1, 5] of the same molecule?
The chromatographic logP was 1.37.

What does the source list for `Cc1cc(C)c([S+]([O-])CC(F)(F)F)cc1B(O)O` (centres unmarked) [VIIIb-11, {2,4-Dimethyl-5-[(2,2,2-trifluoroethyl)sulfinyl]phenyl}boronic acid]?
chromatographic logP [1, 4]: 1.61; chromatographic logP [1, 5]: 1.61

Which results are given for `Fc1cc(Cl)c(SCC(F)(F)F)cc1Br` [VIIa-2, 1-Bromo-4-chloro-2-fluoro-5-[(2,2,2-trifluoroethyl)sulfanyl]benzene]?
chromatographic logP [1, 4]: 4.28; chromatographic logP [1, 5]: 4.29

With `FC(F)(F)CSc1cc(Br)ccc1Br` [VIIa-13, 1,4-Dibromo-2-[(2,2,2-trifluoroethyl)sulfanyl]benzene] as the molecule, how does the chromatographic logP [1, 4] read?
Its chromatographic logP is 4.29.

And the chromatographic logP [1, 5]?
The chromatographic logP was 4.25.

What does the source list for `Fc1cc(Br)c(SCC(F)(F)F)cc1Br` [VIIa-14, 1,4-Dibromo-2-fluoro-5-[(2,2,2-trifluoroethyl)sulfanyl]benzene]?
chromatographic logP [1, 4]: 4.39; chromatographic logP [1, 5]: 4.36

What does the source list for `Fc1cc(F)c(SCC(F)(F)F)cc1Br` [VIIa-15, 1-Bromo-2,4-difluoro-5-[(2,2,2-trifluoroethyl)sulfanyl]benzene]?
chromatographic logP [1, 4]: 3.89; chromatographic logP [1, 5]: 3.86

For `O=[N+]([O-])c1ccc(Cl)c(SSc2cc([N+](=O)[O-])ccc2Cl)c1` [XIX-3, 1,1′-Disulfanediylbis(2-chloro-5-nitrobenzene)], which chromatographic logP ([1]; acidic range, pH 2.7, 0.1% aqueous formic acid and acetonitrile, read-out: log P[a] / log P(HCOOH)) is on record?
Its chromatographic logP is 3.31.

What about the chromatographic logP ([1]; neutral range, pH 7.8, 0.001 molar aqueous ammonium hydrogencarbonate and acetonitrile, read-out: log P[b] / log P(neutral)) of the same molecule?
The chromatographic logP was 3.35.

Which chromatographic logP [1, 4] does the source give for `CCn1[nH]c(=O)n(C(C)(C)C)c1=O` [drawing 120 R1=CH2CH3 R10=C(CH3)3, 4-tert-butyl-1-ethyl-1,2,4-triazolidine-3,5-dione] here?
Its chromatographic logP is 1.15.

With `CCn1[nH]c(=O)n(C(C)C)c1=O` [drawing 120 R1=CH2CH3 R10=CH(CH3)2, 1-ethyl-4-isopropyl-1,2,4-triazolidine-3,5-dione] as the molecule, how does the chromatographic logP [1, 4] read?
The chromatographic logP was 0.62.

With `CC(C)Cn1[nH]c(=O)n(C2CC2)c1=O` [drawing 120 R1=CH2CH(CH3)2 R10=cyclopropyl, 4-cyclopropyl-1-isobutyl-1,2,4-triazolidine-3,5-dione] as the molecule, how does the chromatographic logP [1, 4] read?
Its chromatographic logP is 0.94.

Which chromatographic logP [1, 4] does the source give for `Cn1[nH]c(=O)n(C(C)(C)C)c1=O` [drawing 120 R1=CH3 R10=C(CH3)3, 4-tert-butyl-1-methyl-1,2,4-triazolidine-3,5-dione] here?
Its chromatographic logP is 0.83.

For `CC(C)n1c(=O)[nH]n(C)c1=O` [drawing 120 R1=CH3 R10=CH(CH3)2, 4-isopropyl-1-methyl-1,2,4-triazolidine-3,5-dione], which chromatographic logP [1, 4] is on record?
The chromatographic logP was 0.27.

For `CC(C)n1[nH]c(=O)n(C)c1=O` [drawing 120 R1=CH(CH3)2 R10=CH3, 1-isopropyl-4-methyl-1,2,4-triazolidine-3,5-dione], which chromatographic logP [1, 4] is on record?
The chromatographic logP was 0.12.

For `CC(C)n1[nH]c(=O)n(C2CC2)c1=O` [drawing 120 R1=CH(CH3)2 R10=cyclopropyl, 4-cyclopropyl-1-isopropyl-1,2,4-triazolidine-3,5-dione], which chromatographic logP [1, 4] is on record?
Its chromatographic logP is 0.5.

With `CCC(C)n1[nH]c(=O)n(C2CC2)c1=O` (centres unmarked) [drawing 120 R1=CH(CH3)CH2CH3 R10=cyclopropyl, 1-sec-butyl-4-cyclopropyl-1,2,4-triazolidine-3,5-dione] as the molecule, how does the chromatographic logP [1, 4] read?
The chromatographic logP was 0.82.

For `O=c1[nH]n(Cc2ccccc2)c(=O)n1C1CC1` [drawing 120 R1=benzyl R10=cyclopropyl, 1-benzyl-4-cyclopropyl-1,2,4-triazolidine-3,5-dione], which chromatographic logP [1, 4] is on record?
Its chromatographic logP is 1.21.

Which chromatographic logP [1, 4] does the source give for `Cn1c(=O)[nH]n(C2CCCC2)c1=O` [drawing 120 R1=cyclopentyl R10=CH3, 1-cyclopentyl-4-methyl-1,2,4-triazolidine-3,5-dione] here?
Its chromatographic logP is 0.78.

With `Cn1c(OCc2ccccc2Cl)n[nH]c1=O` [drawing 121 R1=2-chlorobenzyl R10=CH3, 5-[(2-chlorobenzyl)oxy]-4-methyl-2,4-dihydro-3H-1,2,4-triazol-3-one] as the molecule, how does the chromatographic logP [1, 4] read?
The chromatographic logP was 1.66.

And the chromatographic logP [1, 5]?
Its chromatographic logP is 1.63.

For `Cn1c(OCC2CC2)n[nH]c1=O` [drawing 121 R1=CH2-cyclopropyl R10=CH3, 5-(cyclopropylmethoxy)-4-methyl-2,4-dihydro-3H-1,2,4-triazol-3-one], which chromatographic logP [1, 4] is on record?
Its chromatographic logP is 0.84.

And the chromatographic logP [1, 5]?
Its chromatographic logP is 0.88.

What does the source list for `C=CCOc1n[nH]c(=O)n1C1CC1` [drawing 121 R1=CH2CH═CH2 R10=cyclopropyl, 5-(allyloxy)-4-cyclopropyl-2,4-dihydro-3H-1,2,4-triazol-3-one]?
chromatographic logP [1, 4]: 1; chromatographic logP [1, 5]: 1.03

Which chromatographic logP [1, 4] does the source give for `C=CCn1c(OC)n[nH]c1=O` [drawing 121 R1=CH3 R10=CH2CH═CH2, 4-allyl-5-methoxy-2,4-dihydro-3H-1,2,4-triazol-3-one] here?
Its chromatographic logP is 0.45.

What about the chromatographic logP [1, 5] of the same molecule?
Its chromatographic logP is 0.47.

For `COc1n[nH]c(=O)n1C1CC1` [drawing 121 R1=CH3 R10=cyclopropyl, 4-cyclopropyl-5-methoxy-2,4-dihydro-3H-1,2,4-triazol-3-one], which chromatographic logP [1, 4] is on record?
Its chromatographic logP is 0.27.

And the chromatographic logP [1, 5]?
The chromatographic logP was 0.31.
